According to US20260034107A1, “SUBSTITUTED FUSED IMIDAZOLE DERIVATIVES AND METHODS OF TREATING SICKLE CELL DISEASE AND RELATED COMPLICATIONS” (vTv Therapeutics LLC, priority 2019, published 2026):

Tests used:
HbF [1] = assay: Western blot analysis of HbF induction in KU812 cells; type: cell-based, human; settings: for HbF induction by Western blot: tested concentrations 0.5-20 μM; for increased HbF (Western blot): at concentrations between 0.5 to 5 PM
Protocol: (§1) About 20-50 ug of protein is separated by SDS-polyacrylamide gel electrophoresis, and transferred to nitrocellulose membranes. Membranes are blocked in 5% dry milk containing TBS-T for 30 minutes followed by one hour and incubated with HbF or actin antibodies. After several washes, membranes are incubated with 1:10000 diluted HRP-conjugated secondary antibody (Thermo Scientific), developed with ECL Prime reagent (GE Healthcare Biosciences). Images may be captured on a Bio-Rad Chemi-Doc MP Imaging System and protein bands quantified by densitometry.
(§2) KU812, a human leukemic cell line that expresses the fetal gamma-globin and adult beta-globin genes, was used as a system for screening. […] (See Zein S, Lou R F, Sivanand S, Ramakrishnan V, Mackie A, Li W, Pace BS. KU812 Cell Line: model for identifying fetal hemoglobin inducing drugs. Exp Biol Med (Maywood) 235:1385-94, 2010.) KU812 cells were grown in Iscove's Modified Dulbecco Media (IMDM) and 10% fetal bovine serum until in log phase growth.
Western blot analysis was also conducted to determine level of induction of HbF in KU812 cells by Compounds 73, 134, 473, and 236. Hydroxyurea and hemin were used as positive controls, and ß-actin was used as a protein loading control.

HbF [2] = assay: Flow cytometry of KU812 cells for HbF positive cells (F-cells) and MFI; type: cell-based, human; settings: flow cytometry, 0.5, 2.5, 5, 10, and 20 μM
Protocol: (§3) About 5×10^5 cells are harvested after treatment with compound, washed twice with ice cold phosphate buffered saline and resuspended in 4% paraformaldehyde for 40 minutes at 37° C. Fixed cells are permeabilized with ice-cold acetone/methanol (4:1) and washed with phosphate buffered saline followed by incubation with FITC-conjugated anti-HbF antibody (1:1000, Abcam) for 20 minutes. The labeled cells may be analyzed using a Becton Dickerson LSR-II flow cytometer (BD Bioscience, San Jose, CA, USA) and FlowJo v0.9 software.
as §2
Flow cytometry was conducted for KU812 cells following treatment with Compounds 473 and 236 at various concentrations (0.5, 2.5, 5, 10, and 20 μM). […] Compounds 73 and 134 were not analyzed by flow cytometry.

KU812 cells = assay: KU812 cell counts and viability by 0.4% Trypan blue exclusion; type: cell-based, human; settings: 48 hours, 0.5, 2.5, 5.0 and 20 μM, widest range of drug concentrations
Protocol: as §2
KU812 cells in log growth phase were treated with compounds 73, 134, 473 and 236 (See Table A) at a doses of 0.5, 2.5, 5.0 and 20 μM for 48 hours. At harvest, cell counts and viability were measured by 0.4% Trypan blue exclusion.

γ-globin = γ-globin / HbF expression in sickle erythroid progenitor cells; type: cell-based; settings: 48 hours
Protocol: as §1
About 5×10^5 cells are harvested after treatment with compound, washed twice with ice cold phosphate buffered saline and resuspended in 4% paraformaldehyde for 40 minutes at 37° C. […] The labeled cells may be analyzed using a Becton Dickerson LSR-II flow cytometer (BD Bioscience, San Jose, CA, USA) and FlowJo v0.9 software.
To test compounds under conditions more closely modeling physiological conditions for one with a SCD, sickle erythroid progenitor cells were cultured for 10 days and then treated with Compound 473 for 48 hours at concentrations of 0.5 μM and 2.5 μM. Treated cells were analyzed by western blot for levels of expression of HbF, HbS, and ß-actin relative to cells treated with DMSO, hemin, or HU. […]

HbS = assay: Western blot of HbS protein in sickle erythroid progenitor cells; type: cell-based; settings: 0.5 μM and 2.5 μM, 48 hours
Protocol: as §1
(§4) To test compounds under conditions more closely modeling physiological conditions for one with a SCD, sickle erythroid progenitor cells were cultured for 10 days and then treated with Compound 473 for 48 hours at concentrations of 0.5 μM and 2.5 μM. Treated cells were analyzed by western blot for levels of expression of HbF, HbS, and ß-actin relative to cells treated with DMSO, hemin, or HU. The same treated cells were also analyzed by flow cytometry for y-globin gene expression relative to cells treated with DMSO, hemin, or HU.

HbF [3] = assay: Flow cytometry of F-cells in sickle erythroid progenitor cells; type: cell-based; settings: 0.5 μM and 2.5 μM, 48 hours
Protocol: as §3, §4

[4] = system: sickle erythroid progenitor cells; assay: Anti-sickling activity in sickle erythroid progenitor cells under hypoxia; type: cell-based; settings: 0.5 μM and 2.5 μM, 48 hours, hypoxia (1% O2 and 5% CO2)
Protocol: As described above, sickle erythroid progenitor cells were cultured for 10 days and then treated with Compound 473 for 48 hours at concentrations of 0.5 μM and 2.5 μM or with hemin (about 50 μM) or with HU (about 100 μM). Treated cells were then subjected to hypoxia conditions (1% O2 and 5% CO2).

Which results are given for `Cn1c(Nc2nc3ccc(C(F)(F)F)cc3s2)nc2cc(C(=O)NCCOCCO)ccc21` [Compound 236, 1-Methyl-2-(6-trifluoromethyl-benzothiazol-2-ylamino)-1H-benzoimidazole-5-carboxylic acid [2-(2-hydroxy-ethoxy)-ethyl]-amide]?
HbF induction by Western blot (HbF [1]): did not show significant induction of HbF; mean fluorescence intensity (MFI) (HbF [2]): some increase in MFI; number of HbF positive cells (F-cells) (HbF [2]): did not significantly increase F-cells

Which results are given for `CN(C)C(=O)CNC(=O)c1ccc2c(c1)nc(Nc1nc3ccc(C(F)(F)F)cc3s1)n2C` [Compound 134, 1-Methyl-2-(6-trifluoromethyl-benzothiazol-2-ylamino)-1H-benzimidazole-5-carboxylic acid dimethylcarbamoylmethyl-amide]?
effects on cell growth rates (KU812 cells): minimal effects; increased HbF (Western blot) (HbF [1]): increased HbF; HbF induction by Western blot (HbF [1]): showed HbF induction

Which “effects on cell growth rates” value (KU812 cells) does the source give for `Cn1c(Nc2nc3ccc(C(F)(F)F)cc3s2)nc2cc(C(=O)NCCOCCO)cnc21` [Compound 473, N-[2-(2-Hydroxyethoxy)ethyl]-3-methyl-2-[[6-(trifluoromethyl)-1,3-benzothiazol-2-yl]amino]imidazo[4,5-b]pyridine-6-carboxamide] here?
Its value is “minimal effects”.

What about the “increased HbF (Western blot)” value (HbF [1]) of the same compound?
Its value is “increased HbF”.

What about the “HbF induction by Western blot” value (HbF [1]) of the same compound?
Its value is “showed HbF induction”.

And the “mean fluorescence intensity (MFI)” value (HbF [2])?
The value was “increased mean fluorescence intensity”.

What about the “number of HbF positive cells (F-cells)” value (HbF [2]) of the same compound?
The value was “increase in the number of HbF positive cells”.

And the “γ-globin gene expression induction” value (γ-globin; 0.5 μM)?
Its value is 1.6 fold.

What about the “γ-globin gene expression induction” value (γ-globin; 2.5 μM) of the same compound?
Its value is 1.9 fold.

And the HbS protein levels (HbS)?
The HbS protein levels was “without affecting HbS protein levels”.

What about the “F-cell levels by flow cytometry” value (HbF [3]) of the same compound?
The value was “Increased F-cell levels”.

What about the “percent of sickled cells compared to DMSO control” value [4] of the same compound?
Its value is “significantly decreased the percent of sickled cells”.

`COCCNC(=O)c1cnc2c(c1)nc(Nc1nc3ccc(OC(F)(F)F)cc3s1)n2C` [Compound 73, 3-Methyl-2-(6-trifluoromethoxy-benzothiazol-2-ylamino)-3H-imidazo[4,5-b]pyridine-6-carboxylic acid (2-methoxy-ethyl)-amide] was tested. Which “HbF induction by Western blot” value (HbF [1]) did it give?
Its value is “showed HbF induction”.
